Experimental data as given in paper PMC11477482 (Molecules, 2024).

Columns and labels:
[1] = system: THP-1 cells (DNFB-induced CD54 and CD86 expression); assay: Inhibition of THP-1 maturation induced by the allergen DNFB (anti-allergic activity); format: cell-based, human; details: DNFB 8 µM
Method: The human keratinocytes (HaCaT, CLS 300493, Eppelheim, Germany) cell line was cultured with Dulbecco’s Modified Eagle’s Medium (DMEM) (Sigma-Aldrich, St. Louis, MO, USA), supplemented with 10% (v/v) of heat-inactivated fetal bovine serum (FBS), 1% (v/v) antibiotic solution (from a 10,000 U/mL penicillin and 10,000 μg/mL streptomycin stock) (Gibco, Carlsbad, CA, USA), 3.7 g/L sodium bicarbonate, and 1 mM sodium pyruvate (Sigma-Aldrich, St. Louis, MO, USA). The cell culture of keratinocytes was detached with EDTA solution 1X (Sigma-Aldrich, St. Louis, MO, USA) when the cells reached 70–80% confluence in cell culture flasks. The mouse macrophage cell line (RAW 264.7, ATCC TIB-71, Manassas, VA, USA) was cultured in DMEM supplemented with 10% (v/v) non-inactivated FBS, 1% (v/v) antibiotic solution, 1.5 g/L sodium bicarbonate, and 1 mM sodium pyruvate. Macrophages were mechanically detached with a cell scraper and subcultured in (1:10) proportion of cellular suspension to a final volume of DMEM. The human monocytic cell line THP-1 (ATCC® TIB-202™, American Type Culture Collection, Manassas, VA, USA) was cultivated in RPMI 1640 supplemented with 10% inactivated FBS, 25 mM (D)-glucose, 10 mM HEPES, 1 mM sodium pyruvate, 100 U/mL penicillin, and 100 μg/mL streptomycin, and maintained at a cell density of 0.4 × 10^6 cells/mL. Cells were subcultured every 2 or 3 days and maintained in culture for 2–3 months, according to ATCC® instructions.
Following OECD guidelines, researchers utilized the THP-1 human monocyte cell line as a substitute for dendritic cells (DCs) to assess skin sensitization potential. Adapting OECD Test Guideline No. 442E [24], cell density was adjusted to 5.0 × 10^5 cells/mL and allowed to stabilize overnight at 37 °C. Then, 1.5 mL/well of cell suspension was added to a 12-well plate, and solutions of AA, AAG, and AAGS (500 µM) were applied. After 1 h of pre-incubation, a solution of DNFB was added (8 µM), and the cells were further incubated for 24 h. Afterwards, the cells were centrifuged at 300× g for 5 min, the supernatant was discarded, and the cell pellet was washed with PBS containing 1% FBS (2 × 1 mL) and centrifuged. The cell pellet was resuspended in 1 mL of PBS/1% FBS and 200 µL were collected in two microtubes: 100 µL for the unstained (UNST) and 100 µL for the stained (CD5486) conditions. For each stained condition, anti-CD54-APC and anti-CD86-Alexa Fluor 488 (BioLegend, London, UK) were added, and the cells were incubated for 30 min at 4 °C, protected from light. Then, cells were washed twice with 1 mL PBS/1% FBS solution and centrifuged. The cell pellet was further resuspended in 100 µL of PBS and analyzed by flow cytometry using a BD Accuri™ C6 cytometer (San Jose, CA, USA).
CD86 and CD54 levels were analyzed by flow cytometry using the acquisition channels FL1 and FL4. Mitochondrial O2^− production was measured by flow cytometry using the acquisition channel FL2. The relative fluorescence intensity (RFI) of CD86 and CD54 (THP-1 maturation assay) and MitoSOX (mitochondrial antioxidant activity) in the control and chemical-treated cells, based on the geometric mean fluorescence intensity (MFI), was calculated according to the following equation: RFI=MFI of chemical treated cells−MFI of chemical treated unstained cells/MFI of control treated cells−MFI of control unstained cells ×100
The results of at least three independent experiments were represented as a percentage of the control RFI, which was assumed to be 100%.

[2] = Stability at different temperatures, pH 5 (UV-vis absorbance); format: physicochemical; details: for thermostability: pH 5, 4, 25, 40 and 60 °C
Method: Each compound solution (100 µM) buffered at pH 5 was prepared in triplicate. The other three samples were stored at 4 °C, 25 °C, 40 °C, and 60 °C, protected from light. Aliquots of 3.00 mL were transferred to quartz cuvettes at specific time points, and their absorbance was measured by UV–vis spectrophotometry. The blank of each pH corresponded to 3.00 mL of respective buffer. Stability was determined in terms of the change in the maximum peak absorbance.

[3] = Photostability under UVA + UVB radiation; format: physicochemical; details: for variation in absorbance after irradiation: UVA + UVB, up to 15 min
Method: Three independent compound solutions (100 µM) were prepared and exposed to light. A volume of 50 mL of each sample replicate was exposed side-by-side under a UV lamp at a […] distance through an appropriate duration of time. These conditions were monitored using calibrated radiometers. The lamp used as light source for the photostability assay emitted an irradiance of 0.62 mW/cm^2 and 0.74 mW/cm^2 of UVA and UVB light, respectively. A UV lamp (Osram, Ultra-Vitalux, 300 W) was positioned at a height of 54 cm. The UV lamp was turned on 1 h before the experiment, and the UVA and UVB irradiances were measured, maintaining the controlled temperature. At the end of the exposure period, the absorbance spectrum was measured between 200 nm and 800 nm using a UV–vis spectrophotometer. The exposed samples were analyzed concomitantly with protected samples (dark controls). Photostability was evaluated by comparing the UV–vis spectra at each evaluation time for each antioxidant.

[4] = compound 500 µM, 1 h pre-incubation, 24 h, mean ± SEM

Compound	anti-allergic profile regarding CD86 ([1]; 500 µM)	thermostability [2]	absorbance normalized to t = 0 ([2]; pH 5, 60 °C, in 2 h) [%]	absorbance normalized to t = 0 ([2]; pH 5, storage at 25 °C) [%]	increase of absorbance (hyperchromic effect) ([3]; after 5 min of UV exposure (UVA + UVB)) [%]	RFI of CD54 expression, DNFB-induced maturation [1, 4]	variation in absorbance after irradiation [3]	inhibition of DNFB-induced maturation of THP-1 cells ([1]; 500 µM)	RFI of CD86 expression, DNFB-induced maturation [1, 4]
O=C1O[C@H]([C@@H](O)CO)C(O)=C1O [AA, Ascorbic acid]	exhibited anti-allergic profile	decomposed with time at all the temperatures tested	< 30	< 50	~50				
O=C1O[C@H]([C@@H](O)CO)C(O)=C1O[C@H]1O[C@H](CO)[C@@H](O)[C@H](O)[C@H]1O [AAG, 2-O-α-D-glucopyranosyl-L-ascorbic acid]						995.78% ± 80.51%	slight variation in the absorbance		
O=C1OC(C(COS(=O)(=O)O)OS(=O)(=O)O)C(OS(=O)(=O)O)=C1OC1OC(COS(=O)(=O)O)C(OS(=O)(=O)O)C(OS(=O)(=O)O)C1OS(=O)(=O)O [AAGS, 2-O-α-D-glucopyranosyl-L-ascorbic acid persulfate]	exhibited anti-allergic profile	highest level of stability among the compounds				986.89% ± 80.51%	practically imperceptible	anti-allergic activity	168.90% ± 16.30%
